# BindingDB's records for doi:10.1021/jm049073+ (University of Innsbruck, 2005)
# Target: Sigma non-opioid intracellular receptor 1 (Cavia porcellus)
# Assay: Affinity for sigma receptor type 1 of guinea pig using [3H]ifenprodil or (+)-[3H]pentazocine radioligand
compound,measurement,value
O=C(O)c1ccc(CCN2CCN(C/C=C/c3ccc(Cl)cc3)CC2)cc1,Ki,680 nM
"CC1=C2C[C@H]3[C@@H](CC=C4C[C@@H](O)CC[C@@]43C)[C@@H]2CC[C@]12O[C@]1(C)C[C@H](C)CN[C@H]1[C@H]2C [2',3,6,7a,15'-Pentamethyl-(1'S,2'R,2'R,3R,3aS,5'S,6S,7aR,10'S,11'S)-spiro[perhydrofuro[3,2-b]pyridine-2,14'-tetracyclo[8.7.0.02,7.011,16]heptadeca-7',15'-diene]-5'-ol]",Ki,> 100000 nM
CCCCCCCCCCCCC(C#N)(CCCN(C)CCc1ccccc1)c1ccccc1 (stereo not drawn) [2-[3-(Methyl-phenethyl-amino)-propyl]-2-phenyl-tetradecanenitrile],Ki,1 nM
"C[C@H]1CCC2[C@@H](C)[C@H]3[C@H](C[C@H]4[C@@H]5CC=C6C[C@@H](O)CC[C@]6(C)[C@H]5CC[C@]34C)N2C1 (stereo partly drawn) [4a,6a,7,10-tetramethyl-(2S,4aR,4bS,6aS,6bR,7S,10S,12aS,13aS,13bR)-2,3,4,4a,4b,5,6,6a,6b,7,7a,8,9,10,11,12a,13,13a,13b,14-icosahydro-1H-naphtho[2',1':4,5]indeno[1,2-b]indolizin-2-ol]",Ki,74 nM
"CC[C@H]1CC2C[C@H]3C4Nc5ccc(OC)cc5C4CCN(C2)C13 (stereo partly drawn) [17-ethyl-3,13-diazapentacyclo[13.3.1.02,10.04,9.013,18]nonadeca-4,6,8-trien-7-yl methyl ether]",Ki,8550 nM
CCCCCCCOc1ccccc1NC(=O)OC(C)CN(CC)CC (stereo not drawn) [(2-Heptyloxy-phenyl)-carbamic acid 2-diethylamino-1-methyl-ethyl ester],Ki,230 nM
CN(c1nc2ccccc2s1)C1CCN(CCCCOc2ccccc2)C1 (stereo not drawn) [Benzothiazol-2-yl-methyl-[1-(4-phenoxy-butyl)-pyrrolidin-3-yl]-amine],Ki,1.3 nM
NC(=Nc1nc(-c2cc3ccccc3[nH]2)cs1)NCc1ccccc1 [N-Benzyl-N'-[4-(1H-indol-2-yl)-thiazol-2-yl]-guanidine],Ki,26700 nM
